From patent US20120309798A1, “Tumour Treatment Agents and Method” (Vivolux AB, priority 2009, published 2012)
Read-outs that look alike come from different tables or passages of the source.

Assays:
[1] = system: hollow fiber cultures of PHTC from ovarian carcinoma patients; assay: In vivo hollow fiber assay, PHTC ovarian carcinoma; set-up: species or system human; conditions: two PHTC cultures in fibers s.c. in NMRI male mice, single dose 760 μg/mouse s.c., 6 days; P<0.05 and P<0.01
Procedure: (§1) In vivo studies. Cells from two ovarian carcinoma patients and the cell line CEM were cultured inside semi-permeable polyvinylidene fluoride fibers and assessed by the hollow fiber assay (Friberg et al., 2005; Jonsson et al., 2000). The fibers were implanted subcutaneously into NMRI male mice (Scanbur, Sollentuna Sweden), which were treated with a single dose (0.76 mg/mouse) of VLX50 subcutaneously, or vehicle only (n=animals/group). Fibers were retrieved after 6 days and cell density evaluated (FIG. 3a) using the MTT (3-[4,5-dimethylthiazol-2-yl]-2,5-diphenyltetrazolium bromide)-assay (Alley et al. 1988). The method is based on the conversion of MTT to blue formazan crystals by living cells. The formazan was extracted by DMSO as previously described (Jonsson et al. 2000), and optical density (OD) read at 570 nm. Cell density for each fiber on retrieval day was expressed as net growth, defined as (OD retrieval day—OD implantation day)/OD implantation day, i.e. the percent change in cell density in the fibers during the 6 days of in vivo experiment. The animals were observed regarding behavior and weight gain throughout the experiment. Blood samples (200 μl) were obtained through the orbital plexus after anesthetization with isofluran just before euthanasia, and analyzed for hematological parameters. […]

[2] = system: cells from CLL and normal PBMC; assay: Tumor cell specificity: drug effect in CLL cells versus normal PBMC, FMCA; type: cell-based, human; conditions: PBMC n=4, CLL n=9; FIG. 2c
Text: (§2) Cell culture. Patient tumor samples (98) and preparations (4) of normal peripheral blood mononuclear cells (PBMC), detailed in Table 1, were used to determine the activity of VLX50 and, for comparison, six other cytotoxic drugs chosen to represent different mechanistic classes.
(§3) The tumor samples were obtained by bone marrow/peripheral blood sampling, routine surgery or diagnostic biopsy. Leukemic cells and PBMCs were isolated by 1.077 g ml-1 Ficoll-Paque centrifugation (Larsson et al., 1992). Tumor tissue from solid tumor samples was minced into small pieces and tumor cells were isolated by collagenase dispersion followed by Percoll density gradient centrifugation (Csoka et al., 1994). The sampling of primary tumor cells was approved by the local ethics committee at Uppsala University Hospital. Cell viability was determined by trypan blue exclusion test and the proportion of tumor cells in the preparation was judged by inspection of May-Grunvald-Giemsa stained cytospin slides (FIG. 1a). All samples used in this study contained more than 70% tumor cells.
Fluorometric Microculture Cytotoxicity Assay. The Fluorometric Microculture Cytotoxicity Assay, FMCA, described in detail previously (Lindhagen et al., 2008), is based on measurement of fluorescence generated from hydrolysis of fluorescein diacetate (FDA) to fluorescein by cells with intact plasma membranes. Cells were seeded in the drug-prepared 384-well plates using the pipetting robot Precision 2000 (Bio-Tek Instruments Inc., Winooski, Vt.). The number of cells per well were 2500-5000. Two columns without drugs served as controls and one column with medium only served as blank. The plates were incubated for 72 h and then transferred to an integrated HTS SAIGAN Core System consisting of an ORCA robot (Beckman Coulter) with CO2 incubator (Cytomat 2C, Kendro, Sollentuna, Sweden), dispensor module (Multidrop 384, Titertek, Huntsville, Ala.), washer module (ELx 405, Bio-Tek Instruments Inc), delidding station, plate hotels, barcode reader (Beckman Coulter), liquid handler (Biomek 2000, Beckman Coulter) and a multipurpose reader (FLUOstar Optima, BMG Labtech GmbH, Offenburg, Germany) for automated FMCA. Quality criteria for a successful assay included a mean coefficient of variation of less than 30% in the control and a fluorescence signal in control wells of more than 5 times the blank.
Dose-response data were analyzed using calculated survival index values and the software program GraphPadPrism4 (GraphPad Software Inc., San Diego, Calif., USA). Data was processed using non-linear regression to a standard sigmoidal dose-response model to obtain IC50-values (inhibitory concentration 50%).
In FIG. 2a the response rates for VLX50 at 4 μM for the patient samples are listed according to diagnoses. […] Lung cancer, AML and CML had intermediate response rates. The relative effect of VLX50 and six standard cytotoxic drugs, in solid and hematological tumor samples, expressed as the S/H ratio, is shown in FIG. 2b. […] The results for the standard drugs are consistent with their main clinical use.

[3] = system: Breast cancer patient tumor cells; assay: FMCA, patient tumor samples, breast cancer; type: cell-based; conditions: Homo sapiens
Text: as §2
as §3, with “The sampling of primary tumor cells was approved by the local ethics committee at Uppsala University Hospital.” left out, “All samples used in this study contained more than 70% tumor cells.” left out
(§4) Fluorometric Microculture Cytotoxicity Assay. The Fluorometric Microculture Cytotoxicity Assay, FMCA, described in detail previously (Lindhagen et al., 2008), is based on measurement of fluorescence generated from hydrolysis of fluorescein diacetate (FDA) to fluorescein by cells with intact plasma membranes. […] Quality criteria for a successful assay included a mean coefficient of variation of less than 30% in the control and a fluorescence signal in control wells of more than 5 times the blank. […]

[4] = system: CCRF-CEM cell line; assay: In vivo hollow fiber assay, CCRF-CEM; conditions: CCRF-CEM in fibers s.c. in NMRI male mice, single dose 760 μg/mouse s.c., 6 days; P>0.05
Procedure: as §1

[5] = system: CLL (Chronic Lymphocytic Leukemia) patient tumor cells; assay: FMCA, patient tumor samples, CLL; type: cell-based; conditions: Homo sapiens, range over n=9 samples
Text: as §2
as §3, with “The sampling of primary tumor cells was approved by the local ethics committee at Uppsala University Hospital.” left out, “All samples used in this study contained more than 70% tumor cells.” left out
as §4

[6] = Weight gain and hematological parameters of treated mice; type: in vivo, NMRI male mice; conditions: single dose 760 μg/mouse s.c.
Procedure: In vivo studies. Cells from two ovarian carcinoma patients and the cell line CEM were cultured inside semi-permeable polyvinylidene fluoride fibers and assessed by the hollow fiber assay (Friberg et al., 2005; Jonsson et al., 2000). The fibers were implanted subcutaneously into NMRI male mice (Scanbur, Sollentuna Sweden), which were treated with a single dose (0.76 mg/mouse) of VLX50 subcutaneously, or vehicle only (n=animals/group). Fibers were retrieved after 6 days and cell density evaluated (FIG. 3a) using the MTT (3-[4,5-dimethylthiazol-2-yl]-2,5-diphenyltetrazolium bromide)-assay (Alley et al. 1988). The method is based on the conversion of MTT to blue formazan crystals by living cells. The formazan was extracted by DMSO as previously described (Jonsson et al. 2000), and optical density (OD) read at 570 nm. Cell density for each fiber on retrieval day was expressed as net growth, defined as (OD retrieval day—OD implantation day)/OD implantation day, i.e. the percent change in cell density in the fibers during the 6 days of in vivo experiment. The animals were observed regarding behavior and weight gain throughout the experiment. Blood samples (200 μl) were obtained through the orbital plexus after anesthetization with isofluran just before euthanasia, and analyzed for hematological parameters. Four animals were caged per cage and fed a commercial diet (Lactamin AB, Sweden), water being given ad libitum.
In vivo activity in PHTC cultures of ovarian carcinoma. Activity in vivo was determined in hollow fiber cultures of PHTC from ovarian carcinoma patients subcutaneously implanted in mice (FIG. 3a; n=8 each in test and control groups). […] There was no difference in WBC, RBC, and hemoglobin values (FIG. 3c).

[7] = system: ALL (Acute Lymphocytic Leukemia) patient tumor cells; assay: Fluorometric Microculture Cytotoxicity Assay (FMCA), patient tumor samples, ALL; type: cell-based; conditions: Homo sapiens, range over n=21 samples
Text: as §2
as §3, with “The sampling of primary tumor cells was approved by the local ethics committee at Uppsala University Hospital.” left out, “All samples used in this study contained more than 70% tumor cells.” left out
as §4

[8] = system: Assorted tumors: one appendix cancer and one pseudomyxomo peritonei; assay: FMCA, patient tumor samples, assorted tumors; type: cell-based; conditions: Homo sapiens
Text: as §2
as §3, with “The sampling of primary tumor cells was approved by the local ethics committee at Uppsala University Hospital.” left out, “All samples used in this study contained more than 70% tumor cells.” left out
as §4

[9] = system: solid and hematological patient tumor samples; assay: Relative effect on solid and hematological tumor samples (S/H ratio), FMCA; type: cell-based, human; conditions: n=98 patient samples; FIG. 2b
Text: as §2
as §3, with “The sampling of primary tumor cells was approved by the local ethics committee at Uppsala University Hospital.” left out, “All samples used in this study contained more than 70% tumor cells.” left out
as §4

IC50 ([3]; n=7, 72 h FMCA, read-out: Median IC50): 8.23 µM
IC50 ([3]; range over n=7 samples, read-out: IC50 Range): 0.87 to 40 µM
IC50 [5]: 0.035 to 9.4 µM
Hemoglobin values [6]: no difference
RBC [6]: no difference
WBC [6]: no difference
Platelet counts ([6]; P<0.05): significant decrease
Weight gain compared to the control group ([6]; P<0.05): small but significant reduction
IC50 ([8]; n=2, 72 h FMCA, read-out: Median IC50): 7.8 µM
IC50 ([8]; range over n=2 samples, read-out: IC50 Range): 1.6 to 13.3 µM
Structure (SMILES): COCCCNC(=S)N/N=C\c1ccccn1 [VLX50, N1-(3-methoxypropyl)-2-(pyridylmethylidene)-hydrazine-1-carbothioamide]
Growth inhibition (net growth) compared to vehicle [1]: significant growth inhibition
PBMC/CLL median IC50 ratio [2]: 7.6
Difference in net growth between treated group and control group [4]: did not reach statistical significance
IC50 [7]: 0.055 to 11.2 µM
S/H ratio (ratio between total response rates for solid and hematological samples) [9]: 0.73
